Entries after “also recorded” stand apart in the source; their conditions may differ. Each block holds one molecule with its values, some of them ahead of it.
Key:
[1] = system: bovine pigmented ciliary epithelial (PE) cells; assay: Cell volume (shrinkage) of PE cells in isoosmotic suspension, Coulter Counter; format: cell-based; conditions: for effect of PKC modulator on cell volume in the presence of ATP: 0.3 μM staurosporine, 250 μM DiC8; for effect of estradiol on shrinkage produced by ATP and tamoxifen: 100 nM estradiol; for effect of estradiol on cell volume in the absence of tamoxifen: 100 nM, FIG. 16B; for effect of agent on shrinkage in the presence of ATP / shrinkage by agent in the presence or absence of ATP: 10 μM agent; for shrinkage by agent in the presence or absence of ATP: with or without 100 μM ATP
human A3 receptor = biological target: T1, human A3 receptor (Homo sapiens, UniProt P0DMS8); assay: Radioligand binding, [125I]AB-MECA, HEK-293 cell membranes; design: host or cells: HEK-293; conditions: read-out: Ki(hA3)
T1 sequence (P0DMS8 1-318): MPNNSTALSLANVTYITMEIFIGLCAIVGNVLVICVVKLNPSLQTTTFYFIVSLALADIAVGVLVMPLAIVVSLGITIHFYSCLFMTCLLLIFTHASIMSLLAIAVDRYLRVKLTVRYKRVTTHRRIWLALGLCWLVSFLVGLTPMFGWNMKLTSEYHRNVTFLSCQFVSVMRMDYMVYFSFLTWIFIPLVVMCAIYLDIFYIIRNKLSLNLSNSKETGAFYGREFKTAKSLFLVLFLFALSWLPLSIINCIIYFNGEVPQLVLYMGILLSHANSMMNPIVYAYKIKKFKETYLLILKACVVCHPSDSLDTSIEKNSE
Protocol: Natl. Acad. Sci. […] Natl. Acad. Sci. U.S.A. 89:7432-7436, 1992) was performed as described at 4° C. (Olah et al., Mol. Pharmacol. 45:978-982, 1994). The assay medium consisted of a buffer containing 10 mM Mg^2+, 50 mM Tris, 3 units/mL adenosine deaminase, and 1 mM EDTA, at pH 8.0 (4° C.). […] Incubations were terminated by rapid filtration over Whatman GF/B filters, using a Brandell cell harvester (Brandell, Gaithersburg, MD). The tubes were rinsed three times with 3 mL buffer each. At least five different concentrations of competitor, spanning 3 orders of magnitude adjusted appropriately for the IC50 of each compound, were used. IC50 values, calculated with the nonlinear regression method implemented in the InPlot program (Graph-PAD, San Diego, Calif.), were converted to apparent Ki values using the Cheng-Prusoff equation (Cheng et al., Biochem.

[2] = system: HCE (human ciliary epithelial) cell line, NPE cells; assay: Cell volume (shrinkage) of NPE cells in isosmotic solution, Coulter Counter, 5 μM gramicidin; format: cell-based
Protocol: A 0.5-ml aliquot of the HCE cell suspension in DMEM was added to 20 ml of each test solution, which contained (in mM): 110.0 NaCl, 15.0HEPES [4-(2-hydroxyethyl)-1-piperazineethanesulfonic acid], 2.5 CaCl2, 1.2 MgCl2, 4.7 KCl, 1.2 KH2PO4, 30.0 NaHCO3, and 10.0 glucose, at a pH of 7.4 and osmolality of 298-305 mOsm. Parallel aliquots of cells were studied on the same day. One aliquot usually served as a control, and the others were exposed to different experimental conditions at the time of suspension. The same amount of solvent vehicle (dimethylformamide, DMSO or ethanol) was always added to the control and experimental aliquots. The sequence of studying the suspensions was varied to preclude systematic time-dependent artifacts (Civan et al., Exp. Eye Res. 54:181-191, 1992).
Cell volumes of isosmotic suspensions were measured with a Coulter Counter (model ZBI-Channelyzer II), using a 100-μm aperture (Civan et al., supra., 1994). As previously described (Wax et al., supra., 1993), the cell volume (vC) of the suspension was taken as the peak of the distribution function. Cell shrinkage was fit as a function of time (t) to a monoexponential function:
vC=v∞+(v0−v∞)−[e^−(t−t^0^)/τ] {1}
where v∞ is the steady-state cell volume, v0 is the cell volume at the first point (t0) of the time course to be fit, and τ is the time constant of the shrinkage. For purposes of data reduction, the data were normalized to the first time point, taken to be 100% isotonic volume. Fits were obtained by nonlinear least-squares regression analysis, permitting both v∞and τ to be variables.
In order to differentiate among these receptors, the experiments were repeated in the present study using a series of agonists and antagonists selective for these receptors. As we wished to identify the effects of these receptors specifically on Cl^− channels, 5 μM gramicidin D was included in all solutions to eliminate any potential contribution from K^+ channels. This ionophore readily partitions into plasma membranes to form a cation-selective pore, and is widely used for studying volume regulation (Hoffmann et al., in Interaction of Cell Volume and Cell Function, Lang et al., eds., Springer, Heidelberg, Germany, pp. 188-248, (ACEP Series 14), 1993)). Under these conditions, release of cell Cl^− becomes the rate-limiting factor in both hypo-(Civan et al., Exp. Eye Res. 54:181-191, 1992) and isoosmotic cell shrinkage (Carre et al., supra., 1997).

[3] = 100 μM ATP + 10 μM agent, FIG. 13A
[4] = FIG. 2D, 100 nM Cl-IB-MECA, IB-MECA in parallel
[5] = 10 μM trifluoperazine alone, FIG. 14B
[6] = 100 μM ATP + 10 μM TMX + 10 μM trifluoperazine, FIG. 14A
[7] = 100 μM ATP + 10 μM agent, FIG. 14A
[8] = 100 μM ATP + 10 μM trifluoperazine, FIG. 14B

SMILES: CN[C@@H]1C[C@H]2O[C@@](C)([C@@H]1OC)n1c3ccccc3c3c4c(c5c6ccccc6n2c5c31)C(=O)NC4 [staurosporine]
- effect of PKC modulator on cell volume in the presence of ATP ([1]; 100 μM ATP): small, insignificant shrinkage

SMILES: C[C@]12CC[C@@H]3c4ccc(O)cc4CC[C@H]3[C@@H]1CC[C@H]2O [17α-estradiol]
- effect of estradiol on shrinkage produced by ATP and tamoxifen ([1]; 100 μM ATP, 10 μM tamoxifen): no significant effect
- effect of estradiol on cell volume in the absence of tamoxifen [1]: very small effects

SMILES: C[C@]12CC[C@@H]3c4ccc(O)cc4CC[C@H]3[C@@H]1CC[C@@H]2O [17β-estradiol]
- effect of estradiol together with ATP on cell volume ([1]; 100 nM 17β-estradiol, 100 μM ATP): small and slow shrinkage
- effect of estradiol on shrinkage produced by ATP and tamoxifen ([1]; 100 μM ATP, 10 μM tamoxifen): reduced; also recorded: significantly inhibited
- effect of estradiol on cell volume in the absence of tamoxifen [1]: very small effects

SMILES: CCCCc1c(C(=O)SCC)c(CC)c(C(=O)OCC)c(-c2ccccc2)[n+]1C [Compound 20, 1-Methyl-2-butyl-4-ethyl-3-(ethylsulfanylcarbonyl)-5-ethyloxycarbonyl-6-phenylpyridinium Iodide]
- Ki (human A3 receptor): 436 nM

SMILES: CCOC(=O)c1c(CC)c(C(=O)SCC)c(C)[n+](C)c1-c1ccccc1 [Compound 10, 1-Methyl-2-methyl-4-ethyl-3-(ethylsulfanylcarbonyl)-5-ethyloxycarbonyl-6-phenylpyridinium Iodide]
- Ki (human A3 receptor): 379 nM

SMILES: CCC[n+]1c(CC)c(C(=O)SCC)c(CC)c(C(=O)OCC)c1-c1ccccc1 [Compound 13, 1-Propyl-2,4-diethyl-3-(ethylsulfanylcarbonyl)-5-ethyloxycarbonyl-6-phenylpyridinium Iodide]
- Ki (human A3 receptor): 1350 nM

SMILES: CCCOC(=O)c1c(CCC)c(C(=O)SCC)c(CCOCc2ccccc2)[n+](C)c1-c1ccccc1 [Compound 22, 1-Methyl-2-(2-benzyloxylethyl)-4-propyl-3-(ethylsulfanylcarbonyl)-5-propyloxycarbonyl-6-phenylpyridinium Iodide]
- Ki (human A3 receptor): 348 nM

SMILES: CCCOC(=O)c1c(CCC)c(C(=O)SCCCF)c(CC)[n+](C)c1-c1ccccc1 [Compound 17, 1-Methyl-2-ethyl-4-propyl-3-(3-fluoropropylsulfanylcarbonyl)-5-propyloxycarbonyl-6-phenylpyridinium Iodide]
- Ki (human A3 receptor): 465 nM

SMILES: NCCc1c[nH]cn1 [histamine]
- effect of agent on shrinkage in the presence of ATP ([1]; 100 μM ATP, FIG. 13A): did not enhance the volumetric response
- steady-state cell volume (v∞) [1, 3]: 97.4±0.5%
- time constant of the shrinkage (τ) [1, 3]: 21.0 ± 8.0 min

SMILES: O=S(=O)(O)c1cc(N=C=S)ccc1C=Cc1ccc(N=C=S)cc1S(=O)(=O)O [DIDS, 4,4′-diisothiocyano-2,2′-disulfonic acid]
- effect of Cl− channel blocker on ATP, tamoxifen-activated shrinkage ([1]; DIDS 500 μM, NPPB 100 μM): inhibited the volume reduction; also recorded: reduced

- Ki (human A3 receptor): 364 nM
SMILES: CCSC(=O)c1c(CC)c(C(=O)OCCF)c(-c2ccccc2)[n+](C)c1CC [Compound 14]

SMILES: OC[C@H]1O[C@@H](n2cnc3c(NC4CCCC4)ncnc32)[C@H](O)[C@@H]1O [CPA, N^6-cyclopentyladenosine]
- effect of adenosine-receptor agonist on isoosmotic volume ([2]; 30 nM agonist): no significant shrinkage
- effect of adenosine-receptor agonist on isoosmotic volume ([2]; 100 nM agonist): small slow effect of uncertain significance; also recorded: little effect
- effect of adenosine-receptor agonist on isoosmotic volume ([2]; 1 μM agonist): no significant shrinkage
- effect of adenosine-receptor agonist on isoosmotic volume ([2]; 3 μM agonist): no significant shrinkage; also recorded: none at all

SMILES: CCCOC(=O)c1c(CCC)c(C(=O)SCC)c(CC)[n+](C)c1-c1ccccc1 [Compound 16, 1-Methyl-2-ethyl-4-propyl-3-(ethylsulfanylcarbonyl)-5-propyloxycarbonyl-6-phenylpyridinium Iodide]
- Ki (human A3 receptor): 2020 nM

SMILES: CCCOC(=O)c1c(CC)c(C(=O)SCC)c(CC)[n+](C)c1-c1ccccc1 [Compound 15, 1-Methyl-2-ethyl-4-ethyl-3-(ethylsulfanylcarbonyl)-5-propyloxycarbonyl-6-phenylpyridinium Iodide]
- Ki (human A3 receptor): 483 nM

SMILES: CCNC(=O)[C@H]1O[C@@H](n2cnc3c(N)nc(NCCc4ccc(CCC(=O)O)cc4)nc32)[C@H](O)[C@@H]1O [CGS-21680, 2-[4-[(2-carboxyethyl)phenyl]ethylamino]-5′-N-ethylcarbamoyladenosine]
- effect of adenosine-receptor agonist on isoosmotic volume ([2]; 100 nM agonist): no detectable effect
- effect of adenosine-receptor agonist on isoosmotic volume ([2]; 3 μM agonist): triggered isoosmotic shrinkage

- Ki (human A3 receptor): 1250 nM
SMILES: CCOC(=O)c1c(CCN2C(=O)c3ccccc3C2=O)c(C(=O)SCC)c(CC)[n+](C)c1-c1ccccc1 [Compound 19]

SMILES: CNC(=O)[C@H]1O[C@@H](n2cnc3c(NCc4cccc(I)c4)nc(Cl)nc32)[C@H](O)[C@@H]1O [Cl-IB-MECA]
- steady-state cell volume (V∞) [2, 4]: 97.9±0.2%
- time constant of the shrinkage (τ) [2, 4]: 2.5 ± 1.3 min

SMILES: CN1CCN(CCCN2c3ccccc3Sc3ccc(C(F)(F)F)cc32)CC1 [trifluoperazine]
- shrinkage by agent in the presence or absence of ATP [1]: the same, whether or not ATP was present; also recorded: reduced cell volume on their own
- steady-state cell volume (v∞) [1, 5]: 96.8±0.2%
- time constant of the shrinkage (τ) [1, 5]: 0.9 ± 0.6 min
- effect of trifluoperazine on shrinkage produced by ATP alone ([1]; 10 μM trifluoperazine, 100 μM ATP): enhanced the shrinkage produced by ATP alone
- effect of trifluoperazine on the response to ATP+TMX ([1]; 10 μM trifluoperazine, 100 μM ATP, 10 μM tamoxifen): reduced the response
- steady-state cell volume (v∞) [1, 6]: 95.7±0.4%
- time constant of the shrinkage (τ) [1, 6]: 3.9 ± 1.2 min
- steady-state cell volume (v∞) [1, 7]: 96.2±0.3%
- time constant of the shrinkage (τ) [1, 7]: 6.8 ± 1.4 min
- steady-state cell volume (v∞) [1, 8]: 96.7±0.3%
- time constant of the shrinkage (τ) [1, 8]: 0.5 ± 1.5 min

- Ki (human A3 receptor): 577 nM
SMILES: CCOC(=O)c1c(CC)c(C(=O)SCC)c(CC)[n+](CC)c1-c1ccccc1 [Compound 12, 1-Ethyl-2,4-diethyl-3-(ethylsufanylcarbonyl)-5-ethyloxycarbonyl-6-phenylpyridinium Iodide]

SMILES: C[N+](C)(C)CCOC(N)=O [carbachol]
- effect of agent on shrinkage in the presence of ATP ([1]; 100 μM ATP, FIG. 13A): did trigger a prompt shrinkage; also recorded: enhanced shrinkage
- shrinkage by agent in the presence or absence of ATP [1]: nearly the same degree of shrinkage in the presence or absence of 100 μM ATP; also recorded: reduced cell volume on their own
- steady-state cell volume (v∞) [1, 3]: 94.2±0.4%
- time constant of the shrinkage (τ) [1, 3]: 5.6 ± 1.2 min

SMILES: CCCCCCCC(=O)OCC(CO)OC(=O)CCCCCCC (stereo not shown) [DiC8]
- effect of PKC modulator on cell volume in the presence of ATP ([1]; 100 μM ATP): no significant effect

SMILES: CCOC(=O)c1c(CC)c(C(=O)SCC)c(C2CCC2)[n+](C)c1-c1ccccc1 [Compound 21, 1-Methyl-2-cyclobutyl-4-ethyl-3-(ethylsulfanylcarbonyl)-5-ethyloxycarbonyl-6-phenyl pyridinium Iodide]
- Ki (human A3 receptor): 1410 nM

SMILES: CCCOC(=O)c1c(CCSC(C)=O)c(C(=O)SCC)c(CC)[n+](C)c1-c1ccccc1 [Compound 18, 1-Methyl-2-ethyl-4-(2-acetylthioethyl)-3-(ethylsulfanylcarbonyl)-5-propyloxycarbonyl-6-phenylpyridinium Iodide]
- Ki (human A3 receptor): 538 nM

Reference: patent publication US6528516B1, “Methods for reducing intraocular pressure using A3 adenosine receptor antagonists” (Trustees of the University of Pennsylvania, The Center for …, priority 1998, dated 2003)
